For 21 compounds, IC50 results are on record in patent US10584116B2, “Heterocyclic sulfonamide derivative and medicine containing same” (EA Pharma Co., Ltd., priority 2016, dated 2020).

human TRPA1, sequence (O75762 whole entry): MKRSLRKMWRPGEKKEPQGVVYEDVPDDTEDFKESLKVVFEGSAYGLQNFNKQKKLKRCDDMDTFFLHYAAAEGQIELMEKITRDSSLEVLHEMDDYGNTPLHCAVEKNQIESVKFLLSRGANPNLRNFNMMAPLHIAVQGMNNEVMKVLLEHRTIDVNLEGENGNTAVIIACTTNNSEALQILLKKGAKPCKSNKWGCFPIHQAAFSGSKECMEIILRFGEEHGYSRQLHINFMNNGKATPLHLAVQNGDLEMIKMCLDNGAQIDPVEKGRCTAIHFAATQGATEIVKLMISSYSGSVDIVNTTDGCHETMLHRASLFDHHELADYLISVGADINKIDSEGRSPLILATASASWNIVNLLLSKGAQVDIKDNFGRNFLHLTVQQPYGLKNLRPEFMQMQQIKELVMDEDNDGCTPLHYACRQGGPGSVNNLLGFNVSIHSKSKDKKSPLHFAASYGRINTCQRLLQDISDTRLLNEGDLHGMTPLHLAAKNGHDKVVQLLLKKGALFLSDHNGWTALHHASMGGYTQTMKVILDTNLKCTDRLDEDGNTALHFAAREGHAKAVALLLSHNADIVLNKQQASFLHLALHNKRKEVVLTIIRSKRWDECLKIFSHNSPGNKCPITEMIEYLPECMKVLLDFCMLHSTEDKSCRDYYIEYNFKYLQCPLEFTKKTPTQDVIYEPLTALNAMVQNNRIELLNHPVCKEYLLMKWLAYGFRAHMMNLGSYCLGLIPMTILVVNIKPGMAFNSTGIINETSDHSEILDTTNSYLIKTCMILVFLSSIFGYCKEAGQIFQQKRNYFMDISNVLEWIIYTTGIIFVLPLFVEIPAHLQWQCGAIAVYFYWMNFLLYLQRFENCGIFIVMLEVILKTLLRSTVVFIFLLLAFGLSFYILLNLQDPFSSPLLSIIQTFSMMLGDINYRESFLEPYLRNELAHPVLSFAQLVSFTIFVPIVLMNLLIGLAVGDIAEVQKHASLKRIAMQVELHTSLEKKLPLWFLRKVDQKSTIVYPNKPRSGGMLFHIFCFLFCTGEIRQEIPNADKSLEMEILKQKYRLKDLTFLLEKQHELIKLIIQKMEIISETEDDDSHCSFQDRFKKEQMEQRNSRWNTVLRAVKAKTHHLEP

The assay addresses human TRPA1 (Homo sapiens (Human), UniProt O75762). The assay is described as follows: Measurement of TRPA1 antagonist activity (intracellular calcium increase induced by allylisothiocyanate in 293T cells transfected with human TRPA1). The class given is cell-based. The note with it: 293T cells expressing human TRPA1, allylisothiocyanate stimulation, FLIPR Calcium4 fluorescence; read-out: hTRPA1 IC50. How it is done:
Measurement of TRPA1 Antagonist Activity
Human TRPA1 Expression Plasmid
Using cDNA encoding human TRPA1 (GenBank accession No. NM_007332) (manufactured by Kazusa DNA Research Institute, item No. FHC07217) as a template, primer 1 (SEQ ID NO: 1) and primer 2 (SEQ ID NO: 2), PCR by PfuUltra High-Fidelity DNA Polymerase (Stratagene) was performed, and full-length human TRPA1 gene was amplified.
A recognition site (underlined) of restriction enzyme HindIII was added to the 5′ end of human TRPA1 gene, and XbaI site (underlined) was added to the 3′ end of human TRPA1 gene, and GTT of the template sequence was changed to termination codon TAG (bold). The obtained double stranded DNA was enzyme-digested with HindIII and XbaI, and introduced into a multicloning site of expression plasmid pcDNA3.1/zeo(+) (manufactured by Invitrogen) to give a human TRPA1 expression plasmid.
Human embryonic kidney-derived 293T cells were cultured in Dulbecco's Modified Eagle Medium containing 10% fetal bovine serum, 10 unit penicillin, and 10 μg streptomycin. One day before assay, 3×10^6 of 293T cells were plated on a petri dish having a diameter of 10 cm, and cultured in a CO2 incubator for 24 hr. OPTI-MEM I Reduced Serum Media (Invitrogen) (600 μL), Mirus TransIT-293 (Mirus Bio) (18 μL), and human TRPA1 expression plasmid (6 μg) were mixed, the total amount of the mixture was added to the cells on the petri dish to allow for gene transfer. The cells were recovered about for 8 hr later, plated on a poly-D-lysine coated 384 well black/clear bottom plate at 12,000 cells/well, and cultured overnight.
Measurement of Intracellular Calcium Increase
The medium was removed from the 384 well plate, calcium indicator (Molecular Device, trade name: FLIPR Calcium4 Assay Kit) dissolved in HBSS (Thermo Fisher Scientific) (pH 7.2) containing 20 mM HEPES was added (38 μL/well), and the cells were stained in a CO2 incubator for 1 hr. The 384 well plate was stood at room temperature for not less than 15 min, set on FDSS7000 (Hamamatsu Photonics K.K.), and a test substance solution was added at 10 μL/well. After 10 min, allylisothiocyanate solution (12 μL/well) was added, the relative fluorescence intensity was measured for 5 min after addition of the allylisothiocyanate solution.
Test Substance Preparation
Preparation of Test Substance Solution and Allylisothiocyanate Solution
A test substance solution was prepared to have a composition of HBSS (Thermo Fisher Scientific) (pH 7.2) containing 0.48% dimethyl sulfoxide, a test substance at 4.8-fold concentration of the evaluation concentration, 0.1% bovine serum albumin and 20 mM HEPES. An allylisothiocyanate solution was prepared to have a composition of HBSS (Thermo Fisher Scientific) (pH 7.2) containing 0.1% dimethyl sulfoxide, 100 μM allylisothiocyanate, 0.1% bovine serum albumin and 20 mM HEPES.
Calculation of Antagonist Activity
The activity rate of a test substance at each concentration was calculated, wherein the relative fluorescence intensity change of a well free of a test substance and containing allylisothiocyanate is 100% activity rate, and the relative fluorescence intensity change of a well free of a test substance and allylisothiocyanate is 0% activity rate. The inhibitory rate of a test substance at each concentration was calculated by subtracting the activity rate of the test substance from 100% activity rate, and the concentration of a test substance showing 50% inhibitory rate was calculated as IC50 from the sigmoid approximate curve by XLfit (idbs).
Take `CC(C)n1c(=O)c(CNC(=O)[C@H](C)NS(=O)(=O)c2cc3cc(F)ccc3o2)cn(-c2ccc(C(F)(F)F)cc2)c1=O` [Example 24]: the 50% inhibitory concentration (IC50) worked out at 42 nM.
On to `Cc1ccc2oc(S(=O)(=O)N3CCC[C@H]3C(=O)NCc3cn(-c4ccc(C(F)(F)F)cc4)c(=O)n(C(C)C)c3=O)cc2c1` [Example 25, (2S)-N-[[3-isopropyl-2,4-dioxo-1-[4-(trifluoromethyl)phenyl]pyrimidin-5-yl]methyl]-1-(5-methylbenzofuran-2-yl)sulfonyl-pyrrolidine-2-carboxamide], for which the IC50 was determined as 420 nM.
For the compound `CC(C)n1c(=O)c(CNC(=O)C2(NS(=O)(=O)c3cc4cc(F)ccc4o3)CC2)cn(-c2ccc(C(F)(F)F)cc2)c1=O` [Example 26], the half-inhibitory concentration (IC50) was found to be 250 nM.
On to `CC(C)n1cc(-c2ccc(C(F)(F)F)cc2)cc(CNC(=O)[C@@H]2CCCN2S(=O)(=O)c2cc3cnccc3o2)c1=O` [Example 27, (2S)-1-fro[3,2-c]pyridin-2-ylsulfonyl-N-[[1-isopropyl-2-oxo-5-[4-(trifluoromethyl)phenyl]-3-pyridyl]methyl]pyrrolidine-2-carboxamide], for which the IC50 amounted to 93 nM.
For the compound `CC(C)n1cc(-c2ccc(C(F)(F)F)nc2)cc(CNC(=O)[C@@H]2CCCN2S(=O)(=O)c2cc3ccccc3o2)c1=O` [Example 28, (2S)-1-(benzofuran-2-ylsulfonyl)-N-[[1-isopropyl-2-oxo-5-[6-(trifluoromethyl)-3-pyridyl]-3-pyridyl]methyl]pyrrolidine-2-carboxamide], the IC50 worked out at 180 nM.
For `CC(C)n1c(=O)c(CNC(=O)[C@@H]2CCCN2S(=O)(=O)c2cc3ccccc3o2)cn(-c2ccc(C(F)(F)F)nc2)c1=O` [Example 29, (2S)-1-(benzofuran-2-ylsulfonyl)-N-[[3-isopropyl-2,4-dioxo-1-[6-(trifluoromethyl)-3-pyridyl]pyrimidin-5-yl]methyl]pyrrolidine-2-carboxamide] the value was 30 nM.
For `CC(C)n1c(=O)c(CNC(=O)[C@@H]2CCCN2S(=O)(=O)c2cc3cc(F)ccc3o2)cn(-c2ccc(C(F)(F)F)nc2)c1=O` [Example 30, (2S)-1-(5-fluorobenzofuran-2-yl)sulfonyl-N-[[3-isopropyl-2,4-dioxo-1-[6-(trifluoromethyl)-3-pyridyl]pyrimidin-5-yl]methyl]pyrrolidine-2-carboxamide], the IC50 was 10 nM.
As for `CC(C)n1c(=O)c(CNC(=O)[C@@H]2[C@@H](O)CCN2S(=O)(=O)c2cc3cc(F)ccc3o2)cn(-c2ccc(C(F)(F)F)nc2)c1=O` [Example 31, (2S,3S)-1-(5-fluorobenzofuran-2-yl)sulfonyl-3-hydroxy-N-[[3-isopropyl-2,4-dioxo-1-[6-(trifluoromethyl)-3-pyridyl]pyrimidin-5-yl]methyl]pyrrolidine-2-carboxamide], the half-inhibitory concentration (IC50) was 380 nM.
To `CC(C)n1c(=O)c(CNC(=O)[C@@H]2CCCN2S(=O)(=O)c2cc3cnccc3o2)cn(-c2ccc(C(F)(F)F)nc2)c1=O` [Example 32, (2S)-1-fro[3,2-c]pyridin-2-ylsulfonyl-N-[[3-isopropyl-2,4-dioxo-1-[6-(trifluoromethyl)-3-pyridyl]pyrimidin-5-yl]methyl]pyrrolidine-2-carboxamide] belongs 570 nM; to `CC(C)n1c(=O)c(CNC(=O)[C@@H]2CCCN2S(=O)(=O)c2cc3ccccc3o2)cn(-c2ccc(C(F)(F)F)cn2)c1=O` [Example 33, (2S)-1-(benzofuran-2-ylsulfonyl)-N-[[3-isopropyl-2,4-dioxo-1-[5-(trifluoromethyl)-2-pyridyl]pyrimidin-5-yl]methyl]pyrrolidine-2-carboxamide], 44 nM.
`CC(C)n1c(=O)c(CNC(=O)[C@@H]2CCCN2S(=O)(=O)c2cc3cc(F)ccc3o2)cn(-c2ccc(C(F)(F)F)cn2)c1=O` [Example 34, (2S)-1-(5-fluorobenzofuran-2-yl)sulfonyl-N-[[3-isopropyl-2,4-dioxo-1-[5-(trifluoromethyl)-2-pyridyl]pyrimidin-5-yl]methyl]pyrrolidine-2-carboxamide]: the half-maximal inhibitory concentration (IC50) amounted to 18 nM.
Turning to `CC(C)n1c(=O)c(CNC(=O)[C@@H]2[C@@H](O)CCN2S(=O)(=O)c2cc3cc(F)ccc3o2)cn(-c2ccc(C(F)(F)F)cn2)c1=O` [Example 35, (2S,3S)-1-(5-fluorobenzofuran-2-yl)sulfonyl-3-hydroxy-N-[[3-isopropyl-2,4-dioxo-1-[5-(trifluoromethyl)-2-pyridyl]pyrimidin-5-yl]methyl]pyrrolidine-2-carboxamide], the IC50 was 160 nM.
As to `CC(C)n1c(=O)c(CNC(=O)[C@@H]2CCCN2S(=O)(=O)c2cc3cnccc3o2)cn(-c2ccc(C(F)(F)F)cn2)c1=O` [Example 36, (2S)-1-fro[3,2-c]pyridin-2-ylsulfonyl-N-[[3-isopropyl-2,4-dioxo-1-[5-(trifluoromethyl)-2-pyridyl]pyrimidin-5-yl]methyl]pyrrolidine-2-carboxamide], the half-maximal inhibitory concentration (IC50) came out at 200 nM.
For `CC(C)n1cc(-c2ccc(C(F)(F)F)nc2)cc(CNC(=O)[C@@H]2CCCN2S(=O)(=O)c2cc3cc(F)ccc3o2)c1=O` [Example 37, (2S)-1-(5-fluorobenzofuran-2-yl)sulfonyl-N-[[1-isopropyl-2-oxo-5-[6-(trifluoromethyl)-3-pyridyl]-3-pyridyl]methyl]pyrrolidine-2-carboxamide] the value was 31 nM; for `CC(C)n1c(=O)c(CNC(=O)[C@@H]2CCCN2S(=O)(=O)c2cc3ccccc3o2)cn(-c2ccc(F)cc2)c1=O` [Example 38, (2S)-1-(benzofuran-2-ylsulfonyl)-N-[[1-(4-fluorophenyl)-3-isopropyl-2,4-dioxo-pyrimidin-5-yl]methyl]pyrrolidine-2-carboxamide], 240 nM; for `CC(C)n1c(=O)c(CNC(=O)[C@@H]2CCCN2S(=O)(=O)c2cc3cc(F)ccc3o2)cn(-c2ccc(F)cc2)c1=O` [Example 39], 100 nM.
To `CC(C)n1c(=O)c(CNC(=O)[C@@H]2CCCN2S(=O)(=O)c2cc3ccccc3o2)cn(-c2ccc(Cl)cc2)c1=O` [Example 40, (2S)-1-(benzofuran-2-ylsulfonyl)-N-[[1-(4-chlorophenyl)-3-isopropyl-2,4-dioxo-pyrimidin-5-yl]methyl]pyrrolidine-2-carboxamide] belongs 85 nM; to `CC(C)n1c(=O)c(CNC(=O)[C@@H]2CCCN2S(=O)(=O)c2cc3cc(F)ccc3o2)cn(-c2ccc(Cl)cc2)c1=O` [Example 41, (2S)-N-[[1-(4-chlorophenyl)-3-isopropyl-2,4-dioxo-pyrimidin-5-yl]methyl]-1-(5-fluorobenzofuran-2-yl)sulfonyl-pyrrolidine-2-carboxamide], 24 nM.
`CC(C)n1cc(-c2ccc(C(F)(F)F)cn2)cc(CNC(=O)[C@@H]2CCCN2S(=O)(=O)c2cc3ccccc3o2)c1=O` [Example 42, (2S)-1-(benzofuran-2-ylsulfonyl)-N-[[1-isopropyl-2-oxo-5-[5-(trifluoromethyl)-2-pyridyl]-3-pyridyl]methyl]pyrrolidine-2-carboxamide]: the IC50 worked out at 79 nM.
For `CC(C)n1cc(-c2ccc(C(F)(F)F)cn2)cc(CNC(=O)[C@@H]2CCCN2S(=O)(=O)c2cc3cc(F)ccc3o2)c1=O` [Example 43, (2S)-1-(5-fluorobenzofuran-2-yl)sulfonyl-N-[[1-isopropyl-2-oxo-5-[5-(trifluoromethyl)-2-pyridyl]-3-pyridyl]methyl]pyrrolidine-2-carboxamide] the value was 23 nM; for `CC(C)n1cc(-c2ccc(C(F)(F)F)cc2)cc(CNC(=O)[C@@H]2CCCN2S(=O)(=O)c2cc3c(F)cccc3o2)c1=O` [Example 44, (2S)-1-(4-fluorobenzofuran-2-yl)sulfonyl-N-[[1-isopropyl-2-oxo-5-[4-(trifluoromethyl)phenyl]-3-pyridyl]methyl]pyrrolidine-2-carboxamide], 440 nM.

What is called IC50 is the concentration that gives 50% inhibition.
